We go through seven compounds from US20060040980A1, “Ionophores as cancer chemotherapeutic agents” (priority 2004, published 2006).

pIC50, pKd: −log10 of the molar value. “Also recorded” adds a separate entry of the source. Where two headings read alike, the source gives them in different places.

The test system of data set [1] is tumor cells. The data set can be described thus: Modulation of CQ-mediated cell killing by anti-oxidants and zinc chelators. Format: cell-based. The settings on record: added to CQ-treated cells. From the text:
Inventors then studied the effects of the addition of zinc chelators. Since Ca^++ has a lower affinity for EDTA than Zn^++, the addition of […] it.

For data set [2], the system named is Raji cells (a human B-cell Burkitt lymphoma line). Description: MTS cell viability assay, Raji. Format: cell-based. The settings on record: for IC50: Homo sapiens, Raji (B-cell), MTS assay, n = 3, read-out: IC50 (μM) towards human tumor cell lines; for Effect of added copper, zinc or iron on CQ's cytotoxic effects / Interaction of clioquinol and DHA in killing cells (isobologram analysis): Raji cells; for Effect of added copper, zinc or iron on CQ's cytotoxic effects: ZnCl2, CuCl2, FeCl2 premixed with 5 μM clioquinol, 72 h; for Interaction of clioquinol and DHA in killing cells (isobologram analysis): ratio of IC50s. The protocol: (§1) Cell viability was determined with the MTS assay. IC50 was calculated using nonlinear regression analysis (Prism 3.0). […] Data (n=3) are presented as means±S.E.M.
(§2) The CellTiter 96® Aqueous ONE Solution (Promega) was used to assess cellular viability via reduction of (3-(4,5-dimethylthiazol-2-yl)-5-(3carboxymethoxyphenyl)-2-(4-sulfophenyl)-2H-tetrazolium (MTS). An ELISA-based apoptosis assay kit was from Roche, and an anti-poly (ADP-ribose) polymerase (PARP) monoclonal antibody was from BIOMOL Research Laboratories Inc. Nude mice were from Animal Technology Limited. All other reagents were analytic grade.
(§3) DHL-4 cells were provided by Dr. Linda Boxer (Stanford University), A2780 cells by Dr. Stephen Howell (University of California, San Diego), SiHa cells by Dr. Doris Benbrook (University of Oklahoma). All other cells were obtained from the ATCC. Cells were routinely grown in a […], in an environment containing 5% CO2, and passed every three days. Cell viability was analyzed using the MTS assay. […] The MTS assay was performed using the protocol provided by the manufacturer. In short, 20 μL of MTS solution was added to each well, and cells were incubated at 37° C. for 1-2 h. The optical density (490 nm) of each well was then determined.
(§4) IC50 values were calculated with nonlinear regression analysis using Graphpad Prism 3.0 (Graphpad Software, Inc.).
(§5) The cells studied included human B-cell lymphoma lines (DHL-4, Raji), breast (MCF-7, MDA-MB231), ovarian (A2780), cervical (SiHa), bladder (T24), and pancreatic (Mpanc-96) cancer cells.
as §1
Inventors reasoned that the cytotoxic effects of a chelator would be overcome by an excess of the chelated metal. Inventors added increasing concentrations of copper, zinc or iron to cells treated with CQ. […] Cell viability was expressed as a percentage of untreated cells.
On the technique in general: Formazan colour is commonly taken as a measure of viable cells.

The subject of data set [3] is mouse model of Alzheimer's disease. The settings on record: cited from earlier work.
In data set [4] the test system is A2780 cells. Description: Cellular zinc level measurement with FluoZin-3. Format: cell-based, human. The settings on record: A2780, 30 μM clioquinol, 1 h, increasing zinc.
Description: A sensitive water-soluble salt form of a fluorescent zinc indicator was used for cellular zinc level measurement following the manufacture's protocol (FluoZin-3, Molecular Probes). A2780 (10,000/well) and Raji cells (30,000/well) were plated in a 96-well plate.
FluoZinc-3 (final concentration of 3 μM) was added and the cells were incubated for another 30 min at 37° C. After the incubation, cells were washed twice with fresh medium to remove any dye nonspecifically associated with the cell surface. Additional medium was added and the cells were incubated for a further 30 min before fluorescence measurements were commenced. The fluorescence was measured at 485nm/535nm (excitation/emission), using a Wallac 1420 Multilabel Counter (Perkin Elmer).
The zinc ionophore pyrithione was used as a positive control.
For data set [5] the following is noted: cited from earlier work.
The subject of data set [6] is T24 (Bladder). Description: MTS cell viability assay, T24. Format: cell-based. The settings on record: Homo sapiens, read-out: IC50 (μM) of clioquinol towards human tumor cell lines, 72 h, n = 3.
Description: as §2, §3, §4, §5

For data set [7], the system named is Raji cells. The data set can be described thus: Apoptosis ELISA (cytoplasmic histone-associated DNA fragments) and PARP/caspase-3 Western blot. Format: cell-based, human. The settings on record: 24 h, PARP cleavage. The procedure: Western blot analysis was performed as previously described (57-59). Briefly, cells were lysed in a lysis buffer containing 50 MM Tris, pH 7.4, 50 mM NaCl, 0.5% NP-40, 50 mM NaF, 1 mM Na3VO4, 1 mM phenylmethylsulfonyl fluoride, 25 μg/ml leupeptin, and 25 μg/ml aprotinin. The lysates were centrifuged at 15,004×g for 15 min and the supernatants were collected for protein concentration determination, SDS-PAGE, and western blot analysis with specific antibodies, as described.
An ELISA-based kit (Roche Diagnostics Coup., Ind.) was used to quantitatively measure cytoplasmic histone-associated DNA fragments (mononucleosomes and oligonucleosomes), a measure of apoptosis, according to the manufacturer's instructions.
Cellular extracts were analyzed using an ELISA-based assay (Roche Diagnostics Corp., Indianapolis, Ind.) that quantifies release into the cytoplasm of histone-associated DNA fragments (mononucleosomes and oligonucleosomes), a measure of apoptosis. In addition, the lysates were subjected to SDS-PAGE followed by Western blotting using an anti-poly (ADP-ribose) polymerase (PARP) monoclonal antibody (clone C-2-10) to detect PARP cleavage, a sign of caspase-dependent apoptosis.
Cell lysates were prepared and apoptosis determined using an ELISA that quantified cytoplasmic DNA-histone complexes. […]
On the technique in general: An ELISA detects its analyte on a solid surface through an enzyme-linked reagent.

The subject of data set [8] is human cancer cell lines. The data set can be described thus: Viability of eight human cancer cell lines (overall statement). Format: cell-based.
Description: as §2, §3, §4, §5

Data set [9] concerns DHL-4 (B-cell). The data set can be described thus: MTS cell viability assay, DHL-4. Format: cell-based. The settings on record: Homo sapiens, read-out: IC50 (μM) of clioquinol towards human tumor cell lines, 72 h, n = 3.
Description: as §2, §3, §4, §5

In data set [10] the test system is SiHa (cervical). The data set can be described thus: MTS cell viability assay, SiHa. It counts as cell-based. The settings on record: Homo sapiens, read-out: IC50 (μM) of clioquinol towards human tumor cell lines, 72 h, n = 3.
Description: as §2, §3, §4, §5

The subject of data set [11] is A2780 (a human ovarian cancer line) xenograft. The data set can be described thus: A2780 xenograft in nude mice. The settings on record: 28 mg/kg, 5 days a week. Format: in vivo. The procedure: Control animals were given Intralipid, without Cloquinol. […] Animals' weights were also measured 3 times a week.
In a separate experiment, nude mice were injected with the ovarian cancer cell line, A2780 and treated similarly. Mice were killed when the tumor reached 10% of their body weight.
Tumor size was calculated and expressed as […] .

For data set [12], the system named is Raji (a human B-cell lymphoma line) xenograft.
Description: Xenograft model Nude mice (Harlan Sprague-Dawley, Indianapolis, Ind.) were maintained in accordance with the Institutional Animal Care and Use Committee (IACUC) procedures and guidelines. 10×10^6 Raji (a human B-cell lymphoma line), or 5×10^6 A2780 (a human ovarian cancer line) cells were suspended in 100 μL of phosphate buffered saline, mixed with 50% Matrigel, and implanted subcutaneously into the flanks of 5-week-old female nude mice. […] The tumor volume was assessed three times a week using calipers to measure the perpendicular diameters of the tumor, and calculated with the formula; v=l×(w)^2 (0.5), where v=tumor volume, l=length of tumor and w=width of donor (60). Animals' weights were also measured 3 times a week.
Nude mice were injected subcutaneously with Raji cells.
For data set [13], the system named is tumor cells. Description: Lipid peroxidation (thiobarbituric acid reactive substances) in CQ-treated tumor cells. Format: cell-based. The settings on record: CQ treatment of tumor cells.
Data set [14] concerns immortalized endothelial cell line (EAhy.926). Description: Endothelial cell tube formation assay on Matrigel. Format: cell-based. The settings on record: EAhy.926 on Matrigel. The protocol:
An immortalized endothelial cell line (EAhy.926) was plated on Matrigel at a density of 15,000 per well in the absence or presence of the drugs indicated overnight at 37° C. Branch formation was used as a measure of tube formation. Each value was determined by averaging the number of branches per field (250×) in 3 representative fields. The final bFGF concentration was 5 ng/mL.

Data set [15] deals with mouse brains. The settings on record: cited from earlier work.
In data set [16] the test system is A2780 (ovarian). The data set can be described thus: MTS cell viability assay, A2780. Format: cell-based, human.
Description: as §2, §3, §4, §5

Data set [17] relates to patients with Alzheimer's disease. The settings on record: cited from earlier work.
Data set [18] addresses albumin (Homo sapiens, UniProt P02768). The settings on record: read-out: Affinity of binding to albumin; cited from earlier work.
Data set [19] relates to MCF-7 (breast). Description: MTS cell viability assay, MCF-7. Format: cell-based. The settings on record: Homo sapiens, MCF7, read-out: IC50 (μM) of clioquinol towards human tumor cell lines, 72 h, n = 3.
Description: as §2, §3, §4, §5

Data set [20] concerns the target purified bovine erythrocyte SOD 1 (Bos taurus, UniProt P00442). Description: SOD1 activity, xanthine oxidase/cytochrome C method, purified enzyme. The settings on record: purified bovine erythrocyte SOD 1, in vitro.
Data set [21] deals with animals. The settings on record: high doses; cited from earlier work.
In data set [22] the test system is M-panc-96 (pancreas). Description: MTS cell viability assay, M-panc-96. Format: cell-based. The settings on record: Homo sapiens, MPANC96, read-out: IC50 (μM) of clioquinol towards human tumor cell lines, 72 h, n = 3.
Description: as §2, §3, §4, §5

The subject of data set [23] is MDA-MB-231 (breast). The data set can be described thus: MTS cell viability assay, MDA-MB-231. It counts as cell-based. The settings on record: Homo sapiens, read-out: IC50 (μM) of clioquinol towards human tumor cell lines, 72 h, n = 3.
Description: as §2, §3, §4, §5

Setting [24] is: oral, 750 mg a day, Alzheimer's trial.

albumin, sequence (P02768 25-609): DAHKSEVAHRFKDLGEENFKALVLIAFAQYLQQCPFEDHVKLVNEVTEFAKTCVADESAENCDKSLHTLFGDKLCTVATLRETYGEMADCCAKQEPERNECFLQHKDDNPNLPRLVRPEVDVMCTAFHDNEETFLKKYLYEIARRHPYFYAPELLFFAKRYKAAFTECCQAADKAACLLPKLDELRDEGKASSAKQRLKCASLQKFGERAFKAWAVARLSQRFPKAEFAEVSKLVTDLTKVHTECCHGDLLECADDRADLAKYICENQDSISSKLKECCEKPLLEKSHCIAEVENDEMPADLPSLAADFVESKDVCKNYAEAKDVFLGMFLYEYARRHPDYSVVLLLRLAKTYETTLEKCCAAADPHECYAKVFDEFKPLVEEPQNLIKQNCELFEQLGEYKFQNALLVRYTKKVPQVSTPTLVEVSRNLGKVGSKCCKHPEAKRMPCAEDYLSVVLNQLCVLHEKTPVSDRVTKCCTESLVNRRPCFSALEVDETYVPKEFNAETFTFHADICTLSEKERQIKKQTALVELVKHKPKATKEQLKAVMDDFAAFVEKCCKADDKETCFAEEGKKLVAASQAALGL
purified bovine erythrocyte SOD 1, sequence (P00442 whole entry): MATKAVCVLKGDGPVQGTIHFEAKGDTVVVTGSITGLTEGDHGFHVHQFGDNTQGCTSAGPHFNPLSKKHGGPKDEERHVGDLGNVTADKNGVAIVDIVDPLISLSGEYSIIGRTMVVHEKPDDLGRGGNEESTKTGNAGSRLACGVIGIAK

On to `O=C([O-])CN(CCN(CC(=O)[O-])CC(=O)[O-])CC(=O)[O-].[Ca+2].[Na+].[Na+]` [CaEDTA], for which the “Effect of zinc chelators on CQ-mediated cell killing” value in [1] is on record as “decrease in CQ-mediated cell killing”.

As a reminder, the IC50 is the concentration that gives 50% inhibition. Turning to `CC/C=C\C/C=C\C/C=C\C/C=C\C/C=C\C/C=C\CCC(=O)O` [DHA, docosahexaenoic acid], the IC50 in data set [2] was found to be 85 µM.

In the case of `Cc1c(C)c2c(c(C)c1O)CCC(C)(C(=O)O)O2` (stereo not drawn) [Trolox], the “Protection of cells against CQ by anti-oxidants” value in [1] is reported as “do not protect”.

As to `O=C(O)CN(CCN(CC(=O)O)CC(=O)O)CC(=O)O.[Zn]` [ZnEDTA], in data set [1], the “Effect of zinc chelators on CQ-mediated cell killing” value was “not”.

On to `Oc1c(I)cc(Cl)c2cccnc12` [clioquinol, 5-chloro-7-iodo-8-hydroxyquinoline], for which the Dose administered safely in data set [3] (mice) is 30 mg/kg/day. For the same compound, in [3] (mouse model of Alzheimer's disease), the “Sedimentable amyloid in the brains” value is listed as “decrease”. Further, the “Zinc ionophore activity (fluorescent zinc indicator)” value in [4] was “is a zinc ionophore”; in data set [4] (listed as CQ), “is indeed an ionophore”. Also, in data set [5] (man, in 12 hours), the “Absorbed from the skin” value is reported as 40%. The “Excreted in the urine after absorption from the GI tract” value in data set [5] (man, in 72 hours) is 25%. The Serum half-life result in data set [5] (man) is given as “about 12 hours”. For the same compound, the Trough blood levels result in [5] (setting [24]) was “about 25 μM”; in data set [5] (oral, 750 mg a day, Alzheimer's trial, listed as CQ) it was 25 µM. Moreover, the “Trough, steady-state blood levels” value in [5] (setting [24]) was 7.6 µg/mL. Besides, the IC50 in data set [6] came out at 20 µM; in data set [9], 6.7 µM; in data set [10], 38.8 µM; in data set [2], 12.4 µM; in data set [16] (Homo sapiens, read-out: IC50 (μM) of clioquinol towards human tumor cell lines, A2780 (ovarian), 72 h, n = 3), 14.2 µM; in [19] it was 29.7 µM. The 50% inhibitory concentration (IC50) is 23.6 µM in [22] and 19.9 µM in data set [23]. In addition, the Induction of apoptosis entry in data set [7] is “induces apoptosis”. In addition, the pIC50 in data set [8] (eight human cancer cell lines, 72 h, read-out: IC50s, range over all cell lines tested) was 4.40 to 5.00. Further, in [8] (human cancer cells), the “IC50s in killing human cancer cells (in words)” value was “low micromolar range”. Moreover, the “Survival of treated mice” value in data set [11] was “prolonged survival”. Moreover, the Tumor growth entry in data set [11] is “inhibited tumor growth”; in data set [12] (Raji xenograft, 28 mg/kg ip, 5 days a week) it was “inhibition of tumor growth”. Moreover, the Signs of toxicity entry in data set [12] (mouse, in vivo, ip, 28 mg/kg) is recorded as “No animals exhibited signs of toxicity”. In data set [13], the “Lipid peroxidation (thiobarbituric acid reactive substances)” value was “does not lead to increased lipid peroxidation”. In addition, in data set [14], the “Anti-angiogenic effect (cell survival and tube branches)” value is on record as “anti-angiogenic effect”. Also, the “Endothelial cell tube formation” value in [14] (bFGF 5 ng/mL, overnight) is recorded as “inhibited in a dose dependent manner”. Moreover, in data set [15], the “Accumulation of vitamin B12 in the brain” value is reported as “decreased”. The entries for the “Effect of added copper, zinc or iron on CQ's cytotoxic effects” value in data set [2] and in data set [2] (listed as CQ) were “potentiation” and “potentiated”, respectively. Further, the “Interaction of clioquinol and DHA in killing cells (isobologram analysis)” value in data set [2] was “potentiate DHA; also recorded: synergy”; in data set [2] (listed as CQ) it was “synergism”. The “Exposure time sufficient for full cytotoxicity” value in data set [16] (A2780 cells, time-course studies) was 8 h. The Neurotoxicity in patients entry in data set [17] (Australia, 36 patients, 250, 500, 750 mg a day over nine months with vitamin B12) is “No neurotoxicity”. In [17] (Sweden, 10 or 80 mg a day for 21 days), the Toxicity in patients result is “without experiencing toxicity”. Further, the pKd in data set [18] is 8.00. Also, the “Effect on purified SOD 1” value in [20] is “inhibition”. The “Neurotoxicity in animal studies” value in data set [21] was “can induce neurotoxicity”.

Consider `[O-][n+]1ccccc1S` [pyrithione, 2-mercaptopyridine 1-oxide], for which, in [14], the “Anti-angiogenic effect (cell survival and tube branches)” value is “anti-angiogenic effect”.

With vitamin E, in [1], the “Protection of cells against CQ by anti-oxidants” value is on record as “do not protect”.
